Measured values: ChEMBL document CHEMBL6087435, “Prodrugging fungicidal amphotericin B significantly decreases its toxic effects” (Eur J Med Chem, 2025)
≈ marks a conversion by molar mass, not a printed value. Calls of active or inactive are those of the source. No cut-off for these calls is given here.

What was measured:
Candida albicans [1] = assay: Antifungal activity against Candida albicans SN250 assessed as inhibition of fungal growth by broth dilution assay; format: functional
HEK293 [2] = assay: Cytotoxicity against human HEK293 cells at 12.5 uM incubated for 24 hrs by Hoechst 33258 staining based flow cytometry; format: toxicity, cell-based; conditions: hek293, 24 h
Aspergillus fumigatus [3] = assay: Antifungal activity against Aspergillus fumigatus ATCC204305 infected in Galleria mellonella larvae assessed as larval survival at 15 mg/kg measured after 6 days; format: functional; conditions: time 6 day
[4] = Toxicity in human HEK293 cells assessed as effect on polymerized actin pattern at 50 uM incubated for 24 hrs by phalloidin conjugated AlexaFluor-488 staining based confocal microscopic analysis; format: cell-based; conditions: hek293, 24 h
[5] = Toxicity in human HEK293 cells assessed as effect on polymerized actin signal at 50 uM incubated for 24 hrs by phalloidin conjugated AlexaFluor-488 staining based confocal microscopic analysis; format: cell-based; conditions: hek293, 24 h
Aspergillus fumigatus [6] = assay: Antifungal activity against Aspergillus fumigatus ATCC204305 infected in Galleria mellonella larvae assessed as increase in larval survival at 15 mg/kg measured after 6 days; format: functional, organism-based; conditions: time 6.0 day
HEK293 [7] = assay: Cytotoxicity against human HEK293 cells at 6.25 to 12.5 uM incubated for 24 hrs by Hoechst 33258 staining based flow cytometry; format: toxicity, cell-based; conditions: hek293, 24 h, dose 6.25-12.5 µM
[8] = Stability in human plasma in PBS at pH 7.4 assessed as half life by HPLC analysis; format: ADME, cell-free
[9] = Stability in PBS at pH 7.4 assessed as half life by HPLC analysis; format: physicochemical
[10] = Toxicity in human HEK293 cells assessed as reduction in cell confluency at 50 uM incubated for 24 hrs by mitotracker red staining based confocal microscopic analysis; set-up: scale not given: the % may be the effect or the level left; conditions: hek293, 24 h
[11] = Toxicity in human HEK293 cells assessed as effect on cell viability at 50 uM incubated for 24 hrs by confocal microscopic analysis; format: cell-based; conditions: hek293, 24 h
[12] = Toxicity in human HEK293 cells assessed as effect on mitochondrial morphology at 50 uM incubated for 24 hrs by mitotracker red staining based confocal microscopic analysis; format: cell-based; conditions: hek293, 24 h
Candida albicans [13] = assay: Antifungal activity against Candida albicans ATCC90028 infected in Galleria mellonella larvae assessed as increase in larval survival at 15 mg/kg measured after 6 days; format: functional, organism-based; conditions: time 6.0 day
[14] = Cytotoxicity against human HEK293 cells assessed as cell viability at 100 uM incubated for 24 hrs by Hoechst 33258 staining based flow cytometry; format: toxicity; conditions: read-out: Activity
Aspergillus fumigatus [15] = assay: Antifungal activity against Aspergillus fumigatus assessed as inhibition of fungal growth by serial dilution assay; format: functional
Candida albicans [16] = assay: Antifungal activity against Candida albicans ATCC90028 infected in Galleria mellonella larvae assessed as larval survival at 15 mg/kg measured after 6 days; format: functional; conditions: time 6 day
[17] = Toxicity in Galleria mellonella larvae assessed as effect on survival at 15 mg/kg measured for 144 hrs; format: organism-based; conditions: in vivo
Candida albicans [18] = assay: Antifungal activity against Candida albicans K1 assessed as inhibition of fungal growth; format: functional
[19] = Toxicity in Galleria mellonella larvae assessed as larvae death at 15 mg/kg measured for 144 hrs; format: organism-based; conditions: in vivo
[20] = Toxicity in human HEK293 cells assessed as effect on adherent cells at 6.25 uM incubated for 24 hrs by confocal microscopic analysis; format: cell-based; conditions: hek293, 24 h
[21] = Toxicity in human HEK293 cells assessed as effect on cell morphology at 6.25 uM incubated for 24 hrs by confocal microscopic analysis; format: cell-based; conditions: hek293, 24 h
[22] = Toxicity in human HEK293 cells assessed as effect on cell physiology at 6.25 uM incubated for 24 hrs by confocal microscopic analysis; format: cell-based; conditions: hek293, 24 h
Candida albicans [23] = assay: Antifungal activity against Candida albicans ATCC90028 infected in Galleria mellonella larvae assessed as larval survival at 15 mg/kg measured after 72 hrs; format: functional
HEK293 [24] = assay: Cytotoxicity against human HEK293 cells at 6.25 to 100 uM incubated for 24 hrs by Hoechst 33258 staining based flow cytometry; format: toxicity, cell-based; conditions: hek293, 24 h, dose 6.25-100 µM
Candida albicans [25] = assay: Antifungal activity against Candida albicans assessed as inhibition of fungal growth by serial dilution assay; format: functional
[26] = Toxicity in human HEK293 cells assessed as reduction in cell viability at 50 uM incubated for 24 hrs by mitotracker red staining based confocal microscopic analysis; conditions: hek293, 24 h

Structure (SMILES)	Activity (HEK293 [2])	Activity (Aspergillus fumigatus [6])	Activity (HEK293 [7])	half-life [8] [h]	half-life [9] [h]	Activity [10]	Activity (Candida albicans [13])	viability at 24 h, 100 µM [14] [%]	MIC90 (Aspergillus fumigatus [15]) [µg/mL]	Activity (Candida albicans [16]) [%]	Activity [17]	other results
C[C@@H]1[C@H](O)[C@@H](C)/C=C/C=C/C=C/C=C/C=C/C=C/C=C/[C@H](O[C@@H]2O[C@H](C)[C@@H](O)[C@H](N)[C@@H]2O)C[C@@H]2O[C@](O)(C[C@@H](O)C[C@@H](O)[C@H](O)CC[C@@H](O)C[C@@H](O)CC(=O)O[C@H]1C)C[C@H](O)[C@H]2NC(=O)C(CO)CO	–	–	–	–	–	–	–	–	–	–	–	MIC (Candida albicans [1]): 120 µg/mL (≈ 120 µM)
CCOC(=O)[C@H](C)OP(=O)(OCC)Oc1ccc(COC(=O)N[C@@H]2[C@H](O)[C@H](O[C@H]3/C=C/C=C/C=C/C=C/C=C/C=C/C=C/[C@H](C)[C@@H](O)[C@@H](C)[C@H](C)OC(=O)C[C@H](O)C[C@H](O)CC[C@@H](O)[C@H](O)C[C@H](O)C[C@]4(O)C[C@H](O)[C@@H](C(=O)O)[C@H](C3)O4)O[C@H](C)[C@H]2O)cc1 (stereo partly drawn)	Toxic	Active	Toxic	4.5	18	~ 50%	Active	~78	> 16	10	Non-toxic	Activity (Aspergillus fumigatus [3]): 40%; Activity [4]: Non-toxic; Activity [5]: Non-toxic; Activity [11]: Non-toxic; Activity [12]: Non-toxic
C[C@@H]1[C@H](O)[C@@H](C)/C=C/C=C/C=C/C=C/C=C/C=C/C=C/[C@H](O[C@@H]2O[C@H](C)[C@@H](O)[C@H](N)[C@@H]2O)C[C@@H]2O[C@](O)(C[C@@H](O)C[C@@H](O)[C@H](O)CC[C@@H](O)C[C@@H](O)CC(=O)O[C@H]1C)C[C@H](O)[C@H]2NC(=O)NCCN	–	–	–	–	–	–	–	–	–	–	–	MIC (Candida albicans [18]): 500 µg/mL (≈ 510 µM)
CCOP(=O)(OCCOC(C)=O)Oc1ccc(COC(=O)N[C@@H]2[C@H](O)[C@H](O[C@H]3/C=C/C=C/C=C/C=C/C=C/C=C/C=C/[C@H](C)[C@@H](O)[C@@H](C)[C@H](C)OC(=O)C[C@H](O)C[C@H](O)CC[C@@H](O)[C@H](O)C[C@H](O)C[C@]4(O)C[C@H](O)[C@@H](C(=O)O)[C@H](C3)O4)O[C@H](C)[C@H]2O)cc1 (stereo partly drawn)	Toxic	Active	Toxic	1.3	35	~ 50%	Active	~86	> 16	10	Non-toxic	Activity [4]: Non-toxic; Activity [5]: Non-toxic; Activity [11]: Non-toxic; Activity [12]: Non-toxic; Activity [19]: Toxic
C[C@@H]1[C@H](O)[C@@H](C)/C=C/C=C/C=C/C=C/C=C/C=C/C=C/[C@H](O[C@@H]2O[C@H](C)[C@@H](O)[C@H](N)[C@@H]2O)C[C@@H]2O[C@](O)(C[C@@H](O)C[C@@H](O)[C@H](O)CC[C@@H](O)C[C@@H](O)CC(=O)O[C@H]1C)C[C@H](O)[C@H]2C(=O)O [AMPHOTERICIN B]	–	–	–	–	–	–	–	0	–	–	–	Activity [20]: Toxic; Activity [21]: Toxic; Activity [22]: Toxic
CCOC(=O)[C@H](C)OP(=O)(OCC)Oc1ccc(COC(=O)OCOC(=O)[C@H]2[C@@H]3C[C@@H](O[C@@H]4O[C@H](C)[C@@H](O)[C@H](N)[C@@H]4O)/C=C/C=C/C=C/C=C/C=C/C=C/C=C/[C@H](C)[C@@H](O)[C@@H](C)[C@H](C)OC(=O)C[C@H](O)C[C@H](O)CC[C@@H](O)[C@H](O)C[C@H](O)C[C@](O)(C[C@@H]2O)O3)cc1 (stereo partly drawn)	Toxic	Active	Toxic	2.2	2.8	–	Active	–	2 (≈ 1.52 µM)	40	Non-toxic	Activity (Candida albicans [23]): 70%; Activity (HEK293 [24]): Toxic; MIC90 (Candida albicans [25]): 2 µg/mL (≈ 1.52 µM); Activity [26]: Toxic
CC(C)OC(=O)OCOC(=O)[C@H]1[C@@H]2C[C@@H](O[C@@H]3O[C@H](C)[C@@H](O)[C@H](N)[C@@H]3O)/C=C/C=C/C=C/C=C/C=C/C=C/C=C/[C@H](C)[C@@H](O)[C@@H](C)[C@H](C)OC(=O)C[C@H](O)C[C@H](O)CC[C@@H](O)[C@H](O)C[C@H](O)C[C@](O)(C[C@@H]1O)O2	Toxic	Active	Toxic	3.3	7.6	~ 10%	Active	–	> 16	10	Non-toxic	Activity (HEK293 [24]): Non-toxic; MIC90 (Candida albicans [25]): 2 µg/mL (≈ 1.92 µM)
